Results reported in PubChem BioAssay AID250 (DTP/NCI, 2004).
Values joined by “and” are separate entries in the source; they are usually repeats but may differ in a detail not shown here. Identical values can stand only once. Inconclusive results and toxic doses are left out.

Test system: BDF1 mice, L1210 leukemia sc, survival T/C
Assay: NCI In Vivo Anticancer Drug Screen. Data for tumor model L1210 Leukemia (subcutaneous) in B6D2F1 (BDF1) mice
Details: higher = longer survival
How it was run: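 Transplantable tumor-bearing mice; survival or tumor size recorded; result = T/C, treated vs vehicle control.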

[1] = endpoint: median survival time, dose: 1.08 mg/kg/injection, schedule: Q01DX Z (sc), vehicle: saline
[2] = endpoint: median survival time, dose: 1.8 mg/kg/injection, schedule: Q01DX Z (sc), vehicle: saline
[3] = endpoint: median survival time, dose: 3.0 mg/kg/injection, schedule: Q01DX Z (sc), vehicle: saline
[4] = endpoint: median survival time, dose: 8.4 mg/kg/injection, schedule: Q01DX Z (sc), vehicle: saline
[5] = endpoint: median survival time, dose: 14.0 mg/kg/injection, schedule: Q01DX Z (sc), vehicle: saline
[6] = endpoint: median survival time, dose: 23.0 mg/kg/injection, schedule: Q01DX Z (sc), vehicle: saline
[7] = endpoint: median survival time, dose: 5.0 mg/kg/injection, schedule: Q01DX Z (sc), vehicle: saline
[8] = endpoint: median survival time, dose: 39.0 mg/kg/injection, schedule: Q01DX Z (sc), vehicle: methylcellulose (MC)
[9] = endpoint: median survival time, dose: 65.0 mg/kg/injection, schedule: Q01DX Z (sc), vehicle: methylcellulose (MC)
[10] = endpoint: median survival time, dose: 108.0 mg/kg/injection, schedule: Q01DX Z (sc), vehicle: methylcellulose (MC)
[11] = endpoint: median survival time, dose: 180.0 mg/kg/injection, schedule: Q01DX Z (sc), vehicle: methylcellulose (MC)

CO[C@@]12[C@H](COC(N)=O)C3=C(C(=O)C(C)=C(N)C3=O)N1C[C@@H]1N[C@@H]12
T/C (endpoint: median survival time, dose: 0.1 mg/kg/injection, schedule: Q01DX Z (sc), vehicle: saline): 95 % of control
T/C (endpoint: median survival time, dose: 0.17 mg/kg/injection, schedule: Q01DX Z (sc), vehicle: saline): 100 % of control
T/C (endpoint: median survival time, dose: 0.28 mg/kg/injection, schedule: Q01DX Z (sc), vehicle: saline): 100 % of control
T/C (endpoint: median survival time, dose: 0.47 mg/kg/injection, schedule: Q01DX Z (sc), vehicle: saline): 91 % of control
T/C (endpoint: median survival time, dose: 0.79 mg/kg/injection, schedule: Q01DX Z (sc), vehicle: saline): 100 % of control
T/C (endpoint: median survival time, dose: 1.0 mg/kg/injection, schedule: Q01DX009 (ip), vehicle: water): 110 % of control
T/C (endpoint: median survival time, dose: 1.0 mg/kg/injection, schedule: Q01DX009 (sc), vehicle: water): 101 % of control
T/C [1]: 100 % of control
T/C (endpoint: median survival time, dose: 1.3 mg/kg/injection, schedule: Q01DX Z (sc), vehicle: other): 104 % of control
T/C (endpoint: median survival time, dose: 1.3 mg/kg/injection, schedule: Q01DX Z (sc), vehicle: saline): 104 % of control
T/C (endpoint: median survival time, dose: 1.31 mg/kg/injection, schedule: Q01DX Z (sc), vehicle: saline): 95 % of control
T/C [2]: 100 % of control
T/C (endpoint: median survival time, dose: 1.8 mg/kg/injection, schedule: Q02DX Z (sc), vehicle: saline): 100 % of control
T/C (endpoint: median survival time, dose: 2.0 mg/kg/injection, schedule: Q01DX009 (ip), vehicle: water): 110 % of control
T/C (endpoint: median survival time, dose: 2.0 mg/kg/injection, schedule: Q01DX009 (sc), vehicle: water): 110 % of control and 118 % of control
T/C (endpoint: median survival time, dose: 2.16 mg/kg/injection, schedule: Q01DX Z (sc), vehicle: other): 100 % of control
T/C (endpoint: median survival time, dose: 2.16 mg/kg/injection, schedule: Q01DX Z (sc), vehicle: saline): 109 % of control
T/C (endpoint: median survival time, dose: 2.18 mg/kg/injection, schedule: Q01DX Z (sc), vehicle: saline): 100 % of control
T/C [3]: 109 % of control
T/C (endpoint: median survival time, dose: 3.0 mg/kg/injection, schedule: Q02DX Z (sc), vehicle: saline): 109 % of control
T/C (endpoint: median survival time, dose: 3.0 mg/kg/injection, schedule: Q## X Z (sc), vehicle: saline): 104 % of control
T/C (endpoint: median survival time, dose: 3.6 mg/kg/injection, schedule: Q01DX Z (sc), vehicle: other): 109 % of control
T/C (endpoint: median survival time, dose: 3.6 mg/kg/injection, schedule: Q01DX Z (sc), vehicle: saline): 113 % of control
T/C (endpoint: median survival time, dose: 4.0 mg/kg/injection, schedule: Q01DX009 (ip), vehicle: water): 92 % of control
T/C (endpoint: median survival time, dose: 4.0 mg/kg/injection, schedule: Q01DX009 (sc), vehicle: water): 98 % of control and 121 % of control
T/C (endpoint: median survival time, dose: 5.0 mg/kg/injection, schedule: Q01DX001 (sc), vehicle: saline): 109 % of control
T/C (endpoint: median survival time, dose: 5.0 mg/kg/injection, schedule: Q02DX Z (sc), vehicle: saline): 118 % of control
T/C (endpoint: median survival time, dose: 5.0 mg/kg/injection, schedule: Q## X Z (sc), vehicle: saline): 109 % of control
T/C (endpoint: median survival time, dose: 6.0 mg/kg/injection, schedule: Q01DX Z (sc), vehicle: other): 113 % of control
T/C (endpoint: median survival time, dose: 6.0 mg/kg/injection, schedule: Q01DX Z (sc), vehicle: saline): 118 % of control
T/C (endpoint: median survival time, dose: 6.06 mg/kg/injection, schedule: Q01DX Z (sc), vehicle: saline): 116 % of control
T/C (endpoint: median survival time, dose: 8.0 mg/kg/injection, schedule: Q01DX009 (sc), vehicle: water): 108 % of control
T/C (endpoint: median survival time, dose: 8.4 mg/kg/injection, schedule: Q01DX001 (sc), vehicle: saline): 113 % of control
T/C [4]: 118 % of control
T/C (endpoint: median survival time, dose: 8.4 mg/kg/injection, schedule: Q## X Z (sc), vehicle: saline): 122 % of control
T/C (endpoint: median survival time, dose: 10.0 mg/kg/injection, schedule: Q01DX Z (sc), vehicle: other): 109 % of control
T/C (endpoint: median survival time, dose: 10.0 mg/kg/injection, schedule: Q01DX Z (sc), vehicle: saline): 100 % of control
T/C [5]: 109 % of control
T/C (endpoint: median survival time, dose: 14.0 mg/kg/injection, schedule: Q02DX Z (sc), vehicle: saline): 118 % of control
T/C (endpoint: median survival time, dose: 16.0 mg/kg/injection, schedule: Q01DX009 (sc), vehicle: water): 97 % of control
T/C (endpoint: median survival time, dose: 23.0 mg/kg/injection, schedule: Q01DX001 (sc), vehicle: saline): 118 % of control
T/C [6]: 109 % of control
T/C (endpoint: median survival time, dose: 23.0 mg/kg/injection, schedule: Q02DX Z (sc), vehicle: saline): 118 % of control
T/C (endpoint: median survival time, dose: 23.0 mg/kg/injection, schedule: Q## X Z (sc), vehicle: saline): 118 % of control
T/C (endpoint: median survival time, dose: 39.0 mg/kg/injection, schedule: Q01DX001 (sc), vehicle: saline): 118 % of control
T/C (endpoint: median survival time, dose: 39.0 mg/kg/injection, schedule: Q02DX Z (sc), vehicle: saline): 122 % of control
T/C (endpoint: median survival time, dose: 39.0 mg/kg/injection, schedule: Q## X Z (sc), vehicle: saline): 118 % of control
T/C (endpoint: median survival time, dose: 65.0 mg/kg/injection, schedule: Q01DX001 (sc), vehicle: saline): 109 % of control

CC(=O)NC1=C(N2CC2)C(=O)C(NC(C)=O)=C(N2CC2)C1=O
T/C [1]: 213 % of control
T/C [2]: 163 % of control
T/C [7]: 118 % of control
T/C [4]: 109 % of control

Nc1nc(=S)c2ncn(C3OC(COC(=O)c4ccccc4)C(OC(=O)c4ccccc4)C3OC(=O)c3ccccc3)c2[nH]1 (centres undefined)
T/C (endpoint: median survival time, dose: 23.0 mg/kg/injection, schedule: Q01DX Z (sc), vehicle: methylcellulose (MC)): 100 % of control
T/C [8]: 100 % of control
T/C [9]: 110 % of control
T/C [10]: 100 % of control and 112 % of control
T/C [11]: 108 % of control
T/C (endpoint: median survival time, dose: 300.0 mg/kg/injection, schedule: Q01DX Z (sc), vehicle: methylcellulose (MC)): 100 % of control
T/C (endpoint: median survival time, dose: 500.0 mg/kg/injection, schedule: Q01DX Z (sc), vehicle: methylcellulose (MC)): 91 % of control

CN(C)CCN(Cc1ccccc1)c1ccccn1
T/C (endpoint: median survival time, dose: 16.0 mg/kg/injection, schedule: Q01DX001 (sc), vehicle: saline): 95 % of control and 100 % of control
T/C (endpoint: median survival time, dose: 20.0 mg/kg/injection, schedule: Q01DX001 (sc), vehicle: saline): 97 % of control and 100 % of control
T/C (endpoint: median survival time, dose: 24.0 mg/kg/injection, schedule: Q01DX001 (sc), vehicle: saline): 96 % of control and 100 % of control
T/C (endpoint: median survival time, dose: 30.0 mg/kg/injection, schedule: Q01DX001 (sc), vehicle: saline): 98 % of control and 100 % of control

CCN(CC)CCNc1ccc(C)c2sc3ccccc3c(=O)c12 (tested in a mixture with another compound)
T/C [8]: 100 % of control
T/C [9]: 100 % of control
T/C [10]: 100 % of control
T/C [11]: 100 % of control
T/C (endpoint: median survival time, dose: 200.0 mg/kg/injection, schedule: Q01DX Z (sc), vehicle: methylcellulose (MC)): 111 % of control

CS(=O)(=O)Nc1ccc(Nc2c3ccccc3nc3cc(Cl)ccc23)cc1
T/C (endpoint: mean survival time, dose: 10.0 mg/kg/injection, schedule: Q01DX009 (sc), vehicle: saline): 104 % of control
T/C (endpoint: mean survival time, dose: 20.0 mg/kg/injection, schedule: Q01DX009 (sc), vehicle: saline): 112 % of control
T/C (endpoint: mean survival time, dose: 40.0 mg/kg/injection, schedule: Q01DX009 (sc), vehicle: saline): 113 % of control
T/C (endpoint: mean survival time, dose: 80.0 mg/kg/injection, schedule: Q01DX009 (sc), vehicle: saline): 124 % of control

NC(Cc1ccc(N(CCCl)CCCl)cc1)C(=O)O (centres undefined)
T/C (endpoint: median survival time, dose: 1.09 mg/kg/injection, schedule: Q01DX Z (sc), vehicle: water): 100 % of control
T/C (endpoint: median survival time, dose: 1.81 mg/kg/injection, schedule: Q01DX Z (sc), vehicle: water): 100 % of control
T/C [3]: 100 % of control
T/C (endpoint: median survival time, dose: 3.02 mg/kg/injection, schedule: Q01DX Z (sc), vehicle: water): 95 % of control
T/C [7]: 111 % of control
T/C (endpoint: median survival time, dose: 5.04 mg/kg/injection, schedule: Q01DX Z (sc), vehicle: water): 100 % of control
T/C (endpoint: median survival time, dose: 8.4 mg/kg/injection, schedule: Q01DX Z (sc), vehicle: water): 100 % of control
T/C [5]: 155 % of control
T/C [6]: 122 % of control
T/C (endpoint: median survival time, dose: 39.0 mg/kg/injection, schedule: Q01DX Z (sc), vehicle: saline): 122 % of control
T/C (endpoint: median survival time, dose: 65.0 mg/kg/injection, schedule: Q01DX Z (sc), vehicle: saline): 122 % of control
T/C (endpoint: median survival time, dose: 108.0 mg/kg/injection, schedule: Q01DX Z (sc), vehicle: saline): 111 % of control
